# Data as given in patent US8148391B2 (Cephalon, Inc., priority 2006, dated 2012).
# Read-outs that look alike come from different tables or passages of the source.
# Experiments:
# [1] = target: T1, c-Met (cytoplasmic domain) (Homo sapiens, UniProt P08581); test: c-Met Kinase Assay (same methods as for ALK, with modifications); type: biochemical
# T1 construct: 10 ng/mL c-Met (cytoplasmic domain, Invitrogen Corporation #PV3143); purchased Invitrogen Corporation PV3143
# In short: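 This plate-based kinase format uses immobilized phospholipase C-γ as substrate, phosphorylated by c-Met cytoplasmic domain (10 ng/mL) at 37° C for 15 minutes.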
# [2] = target: T2, baculovirus-expressed ALK (Homo sapiens, UniProt Q9UM73); test: ALK Kinase Assay (ELISA-type, time-resolved fluorescence); type: biochemical
# T2 construct: host or cells: baculovirus expression system
# In short: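 Substrate coating: phospholipase C-γ, 10 μg/mL in TBS. Kinase step: 30 ng/ml ALK, 15 min, 37° C. Detection and analysis: Eu-N1 PT66 antibody, with IC50 fitted as a sigmoidal variable-slope dose-response curve.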
# [3] = c-Met kinase inhibition, 1 μM ATP (Km level), read-out: cMet Activity
# [4] = ALK kinase inhibition, 1 μM ATP (Km level), read-out: ALK Activity
# [5] = 1 μM ATP (Km level), 10 ng/mL c-Met, read-out: cMet Activity (c-Met kinase inhibition, IC50 class)
# [6] = 1 μM ATP (Km level), 30 ng/ml ALK, 37° C., 15 minutes, read-out: ALK Activity (ALK kinase inhibition, IC50 class)
# [7] = 1 μM ATP (Km level), read-out: cMet Activity (c-Met Kinase Inhibition, IC50)
# [8] = 1 μM ATP (Km level), read-out: ALK Activity (ALK Kinase Inhibition, IC50)
# [9] = c-Met kinase inhibition, 1 μM ATP, read-out: cMet Activity
# [10] = ALK kinase inhibition, 1 μM ATP, read-out: ALK Activity
# T1 sequence (P08581 956-1390 limits assumed): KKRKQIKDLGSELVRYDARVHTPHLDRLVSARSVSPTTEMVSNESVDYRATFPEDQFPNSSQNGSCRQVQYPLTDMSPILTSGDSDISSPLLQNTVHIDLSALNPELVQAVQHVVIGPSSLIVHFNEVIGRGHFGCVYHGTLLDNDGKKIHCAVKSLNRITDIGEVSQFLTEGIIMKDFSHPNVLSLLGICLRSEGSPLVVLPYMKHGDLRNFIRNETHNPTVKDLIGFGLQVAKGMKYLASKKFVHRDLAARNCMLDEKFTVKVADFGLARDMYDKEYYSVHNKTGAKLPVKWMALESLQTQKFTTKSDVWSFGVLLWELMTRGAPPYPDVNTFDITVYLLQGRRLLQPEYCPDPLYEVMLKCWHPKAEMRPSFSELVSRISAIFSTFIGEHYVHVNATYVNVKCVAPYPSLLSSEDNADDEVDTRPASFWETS
# T2 sequence (Q9UM73 19-1620): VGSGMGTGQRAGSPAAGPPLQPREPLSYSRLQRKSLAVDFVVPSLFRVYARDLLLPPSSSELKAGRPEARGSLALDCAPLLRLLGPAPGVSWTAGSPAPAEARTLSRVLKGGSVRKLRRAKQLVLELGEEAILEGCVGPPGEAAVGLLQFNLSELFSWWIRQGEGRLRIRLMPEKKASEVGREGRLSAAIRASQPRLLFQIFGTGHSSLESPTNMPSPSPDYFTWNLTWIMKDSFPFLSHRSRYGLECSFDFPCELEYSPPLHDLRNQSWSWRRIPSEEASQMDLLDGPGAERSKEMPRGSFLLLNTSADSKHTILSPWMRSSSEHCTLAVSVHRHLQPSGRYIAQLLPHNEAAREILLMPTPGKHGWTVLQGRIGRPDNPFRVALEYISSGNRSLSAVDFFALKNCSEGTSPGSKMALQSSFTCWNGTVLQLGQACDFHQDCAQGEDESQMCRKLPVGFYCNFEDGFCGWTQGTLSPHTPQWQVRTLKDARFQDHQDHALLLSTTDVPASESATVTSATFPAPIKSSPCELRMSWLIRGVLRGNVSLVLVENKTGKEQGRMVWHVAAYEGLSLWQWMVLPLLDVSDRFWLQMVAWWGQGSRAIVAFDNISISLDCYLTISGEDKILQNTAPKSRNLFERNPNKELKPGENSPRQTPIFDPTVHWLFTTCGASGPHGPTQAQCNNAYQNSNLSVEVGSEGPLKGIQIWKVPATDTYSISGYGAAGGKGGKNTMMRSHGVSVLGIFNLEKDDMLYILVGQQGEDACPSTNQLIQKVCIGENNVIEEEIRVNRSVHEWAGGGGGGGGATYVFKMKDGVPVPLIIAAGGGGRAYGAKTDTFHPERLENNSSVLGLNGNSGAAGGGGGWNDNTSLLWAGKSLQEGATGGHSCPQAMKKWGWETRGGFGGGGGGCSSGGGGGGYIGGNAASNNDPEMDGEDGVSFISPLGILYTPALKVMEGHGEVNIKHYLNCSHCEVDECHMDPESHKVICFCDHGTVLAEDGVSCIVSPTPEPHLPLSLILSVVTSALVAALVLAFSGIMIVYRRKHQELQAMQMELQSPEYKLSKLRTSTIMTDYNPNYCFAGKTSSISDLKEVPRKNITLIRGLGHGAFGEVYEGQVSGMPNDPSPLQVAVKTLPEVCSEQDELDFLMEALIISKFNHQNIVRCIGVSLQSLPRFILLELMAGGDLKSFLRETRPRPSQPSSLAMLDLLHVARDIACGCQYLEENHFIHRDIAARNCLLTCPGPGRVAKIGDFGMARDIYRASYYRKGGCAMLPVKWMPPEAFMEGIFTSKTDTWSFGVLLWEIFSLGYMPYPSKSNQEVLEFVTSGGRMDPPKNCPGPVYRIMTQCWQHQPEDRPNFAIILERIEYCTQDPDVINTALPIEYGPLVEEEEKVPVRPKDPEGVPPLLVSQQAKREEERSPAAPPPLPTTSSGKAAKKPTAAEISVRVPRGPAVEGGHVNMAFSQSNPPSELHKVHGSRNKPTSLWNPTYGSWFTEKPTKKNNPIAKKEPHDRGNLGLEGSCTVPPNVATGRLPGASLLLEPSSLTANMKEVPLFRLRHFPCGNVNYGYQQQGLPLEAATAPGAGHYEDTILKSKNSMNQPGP
compound,measurement,setting,value
"COc1cc2c(cc1Nc1ncc(Cl)c(N[C@@H]3CCCC[C@H]3NS(C)(=O)=O)n1)CCN(CC(F)(F)F)CC2 [Example 248, N-((1R,2R)-2-{5-Chloro-2-[8-methoxy-3-(2,2,2-trifluoro-ethyl)-2,3,4,5-tetrahydro-1H-benzo[d]azepin-7-ylamino]-pyrimidin-4-ylamino}-cyclohexyl)-methanesulfonamide]",IC50,[1]; [3],> 10000 nM
same,IC50,[2]; [4],< 100 nM
"COc1cccc(C(=O)NCCC#N)c1Nc1nc(Nc2ccc3c(c2)C(C)(C)CCC(=O)N3)ncc1Cl [Example 1061, 2-[5-Chloro-2-(5,5-dimethyl-2-oxo-2,3,4,5-tetrahydro-1H-benzo[b]azepin-7-ylamino)-pyrimidin-4-ylamino]-N-(2-cyano-ethyl)-3-methoxy-benzamide]",IC50,[1]; [5],1000 to 10000 nM
same,IC50,[2]; [6],> 10000 nM
"CCN1CCc2ccc(Nc3ncc(C(F)(F)F)c(Nc4ccccc4C(=O)NC)n3)cc2CC1 [Example 195, 2-[2-(3-Ethyl-2,3,4,5-tetrahydro-1H-benzo[d]azepin-7-ylamino)-5-trifluoromethyl-pyrimidin-4-ylamino]-N-methyl-benzamide]",IC50,[1]; [3],< 100 nM
same,IC50,[2]; [4],< 100 nM
"C=CCN1CCNC(=O)c2cccc(Nc3ncc(Cl)c(Nc4ccccc4C(=O)NC)n3)c21 [Example 545, 2-[2-(1-Allyl-5-oxo-2,3,4,5-tetrahydro-1H-benzo[e][1,4]diazepin-9-ylamino)-5-chloro-pyrimidin-4-ylamino]-N-methyl-benzamide]",IC50,[1]; [7],> 10000 nM
same,IC50,[2]; [8],1000 to 10000 nM
"CNC(=O)c1scc(C)c1Nc1nc(Nc2ccc3c(c2)C(C)(C)NC(=O)CC3)ncc1Cl [Example 1835, 3-(5-Chloro-2-(1,1-dimethyl-3-oxo-2,3,4,5-tetrahydro-1H-benzo[c]azepin-8-ylamino)pyrimidin-4-ylamino)-N,4-dimethylthiophene-2-carboxamide]",IC50,[1]; [9],< 100 nM
same,IC50,[2]; [10],100 to 1000 nM
"COCCN1CCc2cc(Nc3ncc(Cl)c(Nc4cc(Cl)ccc4OC)n3)c(OC)cc2CC1 [Example 243, 5-Chloro-N*4*-(5-chloro-2-methoxy-phenyl)-N*2*-[8-methoxy-3-(2-methoxy-ethyl)-2,3,4,5-tetrahydro-1H-benzo[d]azepin-7-yl]-pyrimidine-2,4-diamine]",IC50,[1]; [3],> 10000 nM
same,IC50,[2]; [4],< 100 nM
"CNC(=O)c1cccc(F)c1Nc1nc(Nc2ccc3c(c2)OCCCN3C(=O)OC2CCCN(C)C2)ncc1Cl (centres unmarked) [Example 1438, 3-[5-Chloro-4-(2-fluoro-6-methylcarbamoyl-phenylamino)-pyrimidin-2-ylamino]-7,8-dihydro-6H-5-oxa-9-aza-benzocycloheptene-9-carboxylic acid 1-methyl-piperidin-3-yl ester]",IC50,[1]; [9],< 100 nM
same,IC50,[2]; [10],< 100 nM
"CNC(=O)c1cccc(F)c1Nc1nc(Nc2ccc3c(c2)CCC(NCC(F)F)CC3)ncc1Cl (centres unmarked) [Example 664, 2-{5-Chloro-2-[7-(2,2-difluoro-ethylamino)-6,7,8,9-tetrahydro-5H-benzocyclohepten-2-ylamino]-pyrimidin-4-ylamino}-3-fluoro-N-methyl-benzamide]",IC50,[1]; [7],< 100 nM
same,IC50,[2]; [8],< 100 nM
"C#CCN1C2CCC1c1cc(Nc3ncc(Cl)c(Nc4ccccc4C(=O)NC)n3)ccc1C2 (centres unmarked) [Example 69, 2-[5-Chloro-2-(12-prop-2-ynyl-12-aza-tricyclo[7.2.1.0*2,7*]dodeca-2(7),3,5-trien-4-ylamino)-pyrimidin-4-ylamino]-N-methyl-benzamide]",IC50,[1]; [3],< 100 nM
same,IC50,[2]; [4],< 100 nM
"CNC(=O)c1ccccc1Nc1nc(Nc2cc3c(cc2OC)CCN(CC(=O)N(C)C)CC3)ncc1Br [Example 376, 2-[5-Bromo-2-(3-dimethylcarbamoylmethyl-8-methoxy-2,3,4,5-tetrahydro-1H-benzo[d]azepin-7-ylamino)-pyrimidin-4-ylamino]-N-methyl-benzamide]",IC50,[1]; [3],1000 to 10000 nM
same,IC50,[2]; [4],< 100 nM
"CNC(=O)c1cccc(F)c1Nc1nc(Nc2ccc3c(c2)NC(=O)CN(S(C)(=O)=O)C3)ncc1Cl [Example 1860, 2-[5-Chloro-2-(4-methanesulfonyl-2-oxo-2,3,4,5-tetrahydro-1H-benzo[e][1,4]diazepin-8-ylamino)pyrimidin-4-ylamino]-3-fluoro-N-methyl-benzamide]",IC50,[1]; [9],< 100 nM
same,IC50,[2]; [10],< 100 nM
"CCN1CC(=O)N(C)c2cc(Nc3ncc(Cl)c(Nc4ccc(OC)c(CNCCO)c4)n3)c(OC)cc2C1 [Example 749, 8-(5-Chloro-4-{3-[(2-hydroxy-ethylamino)-methyl]-4-methoxy-phenylamino}-pyrimidin-2-ylamino)-4-ethyl-7-methoxy-1-methyl-1,3,4,5-tetrahydro-benzo[e][1,4]diazepin-2-one]",IC50,[1]; [7],> 10000 nM
same,IC50,[2]; [8],100 to 1000 nM
"CNC(=O)c1ccccc1Nc1nc(Nc2cc3c(cc2OC)CCN(CC(C)(F)F)CC3)ncc1Cl [Example 786, 2-{5-Chloro-2-[3-(2,2-difluoro-propyl)-8-methoxy-2,3,4,5-tetrahydro-1H-benzo[d]azepin-7-ylamino]-pyrimidin-4-ylamino}-N-methyl-benzamide]",IC50,[1]; [7],> 10000 nM
same,IC50,[2]; [8],< 100 nM
"C#CCNC(=O)c1cccc(F)c1Nc1nc(Nc2ccc3c(c2)CCN(C(=O)C2COCCO2)CC3)ncc1Cl (centres unmarked) [Example 640, 2-{5-Chloro-2-[3-([1,4]dioxane-2-carbonyl)-2,3,4,5-tetrahydro-1H-benzo[d]azepin-7-ylamino]-pyrimidin-4-ylamino}-3-fluoro-N-prop-2-ynyl-benzamide]",IC50,[1]; [7],< 100 nM
same,IC50,[2]; [8],100 to 1000 nM
"CC1(C)CCCOc2c(Nc3ncc(Cl)c(Nc4ccccc4C(=O)NCCC#N)n3)cccc21 [Example 877, 2-[5-Chloro-2-(5,5-dimethyl-2,3,4,5-tetrahydro-benzo[b]oxepin-9-ylamino)-pyrimidin-4-ylamino]-N-(2-cyano-ethyl)-benzamide]",IC50,[1]; [7],> 10000 nM
same,IC50,[2]; [8],100 to 1000 nM
"CCN1CCN(CC)c2cc(Nc3ncc(Cl)c(Nc4c(F)cccc4C(=O)NC)n3)ccc2C1 [Example 716, 2-[5-Chloro-2-(1,4-diethyl-2,3,4,5-tetrahydro-1H-1,4-benzodiazepin-8-ylamino)-pyrimidin-4-ylamino]-3-fluoro-N-methyl-benzamide]",IC50,[1]; [7],< 100 nM
same,IC50,[2]; [8],< 100 nM
"CCN1CC(=O)Nc2cc(Nc3ncc(Cl)c(Nc4c(C)csc4C(=O)NC)n3)ccc2C1 [Example 1865, 3-[5-Chloro-2-(4-ethyl-2-oxo-2,3,4,5-tetrahydro-1H-benzo[e][1,4]diazepin-8-ylamino)-pyrimidin-4-ylamino]-4-methyl-thiophene-2-carboxylic acid methylamide]",IC50,[1]; [9],100 to 1000 nM
same,IC50,[2]; [10],100 to 1000 nM
"COc1cc2c(cc1Nc1ncc(Cl)c(Nc3ccccc3-n3cccn3)n1)CCC(NCC(F)F)CC2 (centres unmarked) [Example 1059, 5-Chloro-N*2*-[7-(2,2-difluoro-ethylamino)-3-methoxy-6,7,8,9-tetrahydro-5H-benzocyclohepten-2-yl]-N*4*-(2-pyrazol-1-yl-phenyl)-pyrimidine-2,4-diamine]",IC50,[1]; [5],> 10000 nM
same,IC50,[2]; [6],< 100 nM
"C#CCNC(=O)c1cccc(F)c1Nc1nc(Nc2ccc3c(c2)N(CC)C(=O)C(NC(=O)CN(C)C)CC3)ncc1Cl (centres unmarked) [Example 1497, 2-{5-Chloro-2-[3-(2-dimethylamino-acetylamino)-1-ethyl-2-oxo-2,3,4,5-tetrahydro-1H-benzo[b]azepin-8-ylamino]-pyrimidin-4-ylamino}-3-fluoro-N-prop-2-ynyl-benzamide]",IC50,[1]; [9],< 100 nM
same,IC50,[2]; [10],100 to 1000 nM
